The source of these data is publication PMC4996284 (CNS neuroscience & therapeutics, 2016).

As a reminder, the IC50 is the midpoint of a concentration-inhibition curve. A high value points to lower potency.

Test [1] relates to MCAO-induced focal ischemia. Briefly: Transient focal ischemia by middle cerebral artery occlusion. Type of test: in vivo, mouse. The following applies: mice, 1 µl of 500 µM i.c.v. 3h after MCAO (~12 µM); ACSF 49%.
The target of test [2] is T1, rat ASIC1a (Rattus norvegicus, UniProt P55926).
T1 sequence (P55926 1-526): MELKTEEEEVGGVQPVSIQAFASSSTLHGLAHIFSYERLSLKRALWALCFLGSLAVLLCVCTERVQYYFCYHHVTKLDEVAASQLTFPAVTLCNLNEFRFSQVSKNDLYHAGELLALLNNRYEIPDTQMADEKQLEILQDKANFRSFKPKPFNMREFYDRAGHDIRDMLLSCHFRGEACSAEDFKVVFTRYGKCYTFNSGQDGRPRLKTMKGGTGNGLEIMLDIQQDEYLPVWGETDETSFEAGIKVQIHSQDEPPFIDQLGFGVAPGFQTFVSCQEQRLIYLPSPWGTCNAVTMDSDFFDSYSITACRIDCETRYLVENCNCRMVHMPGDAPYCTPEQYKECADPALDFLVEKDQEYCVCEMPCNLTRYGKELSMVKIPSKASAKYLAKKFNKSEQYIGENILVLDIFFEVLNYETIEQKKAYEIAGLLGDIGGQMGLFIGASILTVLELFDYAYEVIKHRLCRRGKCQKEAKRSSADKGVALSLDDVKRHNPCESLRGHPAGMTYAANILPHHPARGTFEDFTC
The following applies: potency relative to amiloride.

Test [3] concerns the target T1, rat ASIC1a. Briefly: cell-based.

The compound `NC(=NCc1ccccc1)NC(=O)c1nc(Cl)c(N)nc1N` [Benzamil] returned an infarct volume in test [1] of 33.75%. Also, on rat ASIC1a [2], the “increased inhibitory activity on ASIC1a currents in comparison with amiloride” value is ~ 4 fold. The IC50 on rat ASIC1a [3] worked out at 3.5 ± 0.18 µM.

On rat ASIC1a [3], `CCN(c1nc(N)c(C(=O)NC(=N)N)nc1Cl)C(C)C` [EIPA, 5-(N-ethyl-N-isopropyl)amiloride] had an IC50 of 20.7 ± 2.18 µM.

Regarding `NC(=Nc1ccccc1)NC(=O)c1nc(Cl)c(N)nc1N` [Phenamil], the “increased inhibitory activity on ASIC1a currents in comparison with amiloride” value on rat ASIC1a [2] is on record as ~ 2 fold. Moreover, the IC50 against rat ASIC1a [3] was 6.95 µM.
